What all share (assay type): in vivo
Experiment [1] deals with CD8-positive T cells in peripheral blood. Description: Number of CD8-positive T cells in peripheral blood in FM3A syngeneic mouse model (flow cytometry). The note with it: day 8; irinotecan 250 mg/kg ip once; P<0.05, Wilcoxon Signed-Rank Test. The protocol: On day 8 of administration, peripheral blood was collected, CD8-positive T cells were measured by flow cytometry (FIG. 2).
A general note: In flow cytometry, cells or beads pass a laser one at a time.

Experiment [2] concerns CD8-positive T cells in tumor. Description: CD8, CD69 or Ki-67-positive tumor-infiltrating lymphocytes in FM3A syngeneic mouse model (flow cytometry). The note with it: day 8, irinotecan 250 mg/kg ip once. The source says:
On day 8 of administration, tumors were collected, and then cells were dissociated using a gentleMACS (Trademark) Octo Dissociator, washed, and then used for flow cytometry, thereby quantitatively determining CD8, CD69 or Ki-67-positive tumor-infiltrating lymphocytes (TIL) (FIG. 3).

Experiment [3] concerns Foxp3-positive CD4-positive regulatory T cells in tumor. Description: Foxp3-positive CD4-positive regulatory T cells in tumor in FM3A syngeneic mouse model (flow cytometry). The note with it: day 8; irinotecan 250 mg/kg ip once. The source says:
On day 8 of administration, tumors were collected, and then cells were dissociated using a gentleMACS (Trademark) Octo Dissociator, washed, and then used for flow cytometry, thereby measuring Foxp3-positive CD4-positive regulatory T cells by flow cytometry (FIG. 4).

In the case of `CCc1c2c(nc3ccc(OC(=O)N4CCC(N5CCCCC5)CC4)cc13)-c1cc3c(c(=O)n1C2)COC(=O)[C@]3(O)CC` [irinotecan], in experiment [1], the “number of CD8-positive T cells in peripheral blood versus solvent administration group” value is “significantly lower”. For the same compound, in experiment [2], the “CD8-positive T cells in lymph nodes compared with the solvent administration group (FIG. 3A)” value is recorded as “not found to exhibit any significant decrease” and the “CD69-positive CD8-positive T cells among tumor cells compared with the solvent administration group (FIG. 3B)” value is reported as “not found to exhibit any significant decrease”. The “Ki-67-positive CD8-positive T cells in tumors compared with the solvent administration group (FIG. 3C)” value in experiment [2] (10F.9G2 10 mg/kg ip 3 times a week) is recorded as “significant increases”. In experiment [3], the “Foxp3-positive CD4-positive regulatory T cells in tumors versus solvent administration group” value is given as “significantly lower”.

(Values after US20230091221A1, “PHARMACEUTICAL COMPOSITION” (Chugai Seiyaku Kabushiki Kaisha, priority 2017, published 2023).)
